# “Also recorded” adds a separate entry of the source.
# Tested on: ΔF508-CFTR (IBE-1 cells)
# Assay: whole cell patch-clamp analysis of IBE-1 cells
# Type: cell-based, human
# Settings: for reversal potential: DSG-treated cells
# Method: The bath (extracellular) solution contained: 140 mM N-methyl-Dglucamine (NMDG), 2 mM CaCl2, 1 mM MgCl2, 0.1 mM CdCl2, 10 mM HEPES, 4 mM CsCl, and 10 mM glucose, pH 7.4. These solutions were designed so as to study only currents flowing through Cl^- channels, since Cl^- was the only significant permeant ion in the solutions. Furthermore, Ca^2+ -activated Cl^- currents were minimized by inclusion of 10 mM EGTA in the intracellular solution and 100 μM of Cd^2+ in the extracellular bath. K^+ currents were minimized by including 20 mM TEA in the intracellular solution. Aspartate was used as the replacement anion in experiments in which extracellular Cl^- concentration was changed. Forskolin (10 μM), IBMX (100 μM), 8-(4-chlorophenylthio)-cAMP (cpt-cAMP, 200 μM), diphenylamine carboxylic acid (DPC, 200 μM), UTP (100 μM), and ionomycin (1 μM) were added to the bath solutions as indicated. Current recordings were made from the same cells before, during, and after exposure to the solutions containing the different agonists or inhibitors. All experiments were performed at room temperature (22° C.). Currents were filtered at 2 kHz. Data acquisition and analysis were performed using the PCLAMP 5.5.1 software (Axon Instruments, Foster City, Calif.).
# In all of the successfully patched CF IBE-1 cells from 6 separate coverslips no activation of whole cell currents in response to forskolin (10 μM) plus IBMX (100 μM) or cpt-cAMP (200 μM) was detected (FIG. 10A and 10B), indicating no endogenous CFTR channel activity in these cells. In contrast, in 7 out of 19 successful patched cells from 19 separate coverslips treated with DSG (10 μM) for 48 to 72 hrs. a significant activation of whole cell currents was observed. As all the other cells, the holding potential was 0 m, which inactivated the voltage-gated Na^+ and Ca^++ channels. After addition of 200 μM cpt-cAMP to the bath solution, voltage steps from the holding potential to between -100 mV and 80 mV in 20 mV increments activated whole cell currents. In these experiments, the intracellular and extracellular solutions were designed to study only current flowing through Cl^- channels, since Cl^- is the only significant permeant ion in solution. Ca^++ and K^+ currents were minimized by 100 μM of extracellular Cd^++ and 20 mM of intracellular TEA respectively. Furthermore, the currents were ascertained to be Cl^- currents from change in the reversal potential which was shifted from 1.1±1.5 to 47.3±6.1 mV by reducing extracellular Cl^- from 150 mM to 20 mM.
# It is highly unlikely that Ca^++ -activated Cl^- was recorded in these experiments because of the presence of 10 mM intracellular EGTA and 100 µM extracellular Cd^++. […] Special attention was paid to detect possible contribution of the outwardly rectifying Cl^- channel (ORCC) to the whole cell currents. Because of a possible upregulatory role of CFTR, ORCC can be activated in normal but not in CF airway epithelial cells (Hwang et al. (1989), supra.; Li et al. (1988), Nature 331: 358-360; Morris and Frizzel (1993); Am. J. Physiol.; Schwiebert et al. (1994), Am. J. Physiol.).
smiles,measurement,setting,value
"N=C(N)NCCCCCCC(=O)NC(O)C(=O)NCCCCNCCCN (stereo not shown) [DSG, deoxyspergualin]",successfully patched cells with significant activation of whole cell currents,"DSG (10 μM) 48 to 72 hrs, cAMP stimulation",7 out of 19
same,reversal potential,extracellular Cl- 150 mM,1.1±1.5 mV
same,reversal potential,extracellular Cl- reduced to 20 mM,47.3±6.1 mV
same,"whole cell currents, in words",IBE-1 cells,resembled those of wild-type CFTR in epithelial cells; also recorded: almost identical to that recorded in transduced CF IBE-1 cells

# Reference: US5985824A, “Methods and compositions for treating cystic fibrosis” (priority 1997, dated 1999)
